Consider 4 compounds from ChEMBL document CHEMBL4665808, “Krisynomycins, Imipenem Potentiators against Methicillin-Resistant Staphylococcus aureus, Produced by Streptomyces canus” (2020).

Converted amounts (≈) assume the structure as drawn.

What all share (assay type): functional
Experiment [1] deals with Staphylococcus aureus. Nature of the experiment: Antibacterial against methicillin-resistance Staphylococcus aureus MB5393 by broth dilution method. Background: Broth dilution looks for growth in wells or tubes with falling amounts of substance.
Experiment [2] deals with Staphylococcus aureus. Nature of the experiment: Potentiation of imipenem-induced activity antibacterial against methicillin-resistance Staphylococcus aureus MB5393 in presence of 1 ug/ml imipenem by broth dilution method.
For experiment [3], the system named is Staphylococcus aureus. The experiment in a line: Potentiation of imipenem-induced activity antibacterial against methicillin-resistance Staphylococcus aureus MB5393 in presence of 2 ug/ml imipenem by broth dilution method.
For experiment [4], the system named is Staphylococcus aureus. Nature of the experiment: Potentiation of imipenem-induced activity antibacterial against methicillin-resistance Staphylococcus aureus MB5393 in presence of 4 ug/ml imipenem by broth dilution method.

As a reminder, the MIC is the lowest concentration found to suppress growth. Consider `CC(C)=CCc1cccc2[nH]cc(C[C@@H]3NC(=O)[C@H](Cc4c[nH]c5ccccc45)NC(=O)[C@@H]4CCCN4C(=O)[C@@H](CS(=O)(=O)O)NC(=O)[C@@H](NC(=O)[C@@H](NC(=O)[C@H](C)NC(=O)CC(=O)O)C(C)C)COC(=O)[C@H](CO)NC(=O)[C@@H](CC(C)C)NC(=O)[C@@H](C(C)C)NC3=O)c12`, for which the MIC is over 128 µg/mL in experiment [1], 16 µg/mL in experiment [2], 16 µg/mL in experiment [3] and 8 µg/mL in experiment [4].
On to `CC(C)=CCc1cccc2[nH]cc(C[C@@H]3NC(=O)[C@H](Cc4c[nH]c5c(Cl)cccc45)NC(=O)[C@@H]4CCCN4C(=O)[C@@H](CS(=O)(=O)O)NC(=O)[C@@H](NC(=O)[C@@H](NC(=O)[C@H](C)NC(=O)CC(=O)O)C(C)C)COC(=O)[C@H](CO)NC(=O)[C@@H](CC(C)C)NC(=O)[C@@H](C(C)C)NC3=O)c12`, for which the MIC is over 128 µg/mL in experiment [1], 4 µg/mL in experiment [2], 4 µg/mL in experiment [3] and 2 µg/mL in experiment [4].
As to `CC(C)=CCc1ccc(Cl)c2[nH]cc(C[C@@H]3NC(=O)[C@H](Cc4c[nH]c5c(Cl)cccc45)NC(=O)[C@@H]4CCCN4C(=O)[C@@H](CS(=O)(=O)O)NC(=O)[C@@H](NC(=O)[C@@H](NC(=O)[C@H](C)NC(=O)CC(=O)O)C(C)C)COC(=O)[C@H](CO)NC(=O)[C@@H](CC(C)C)NC(=O)[C@@H](C(C)C)NC3=O)c12`, the MIC in experiment [1] turned out to be 16 µg/mL (≈ 11.4 µM); in experiment [2], 0.5 µg/mL; in experiment [3], 0.5 µg/mL; in experiment [4], 0.25 µg/mL.
As to `C[C@@H](O)[C@H]1C(=O)N2C(C(=O)O)=C(SCCNC=N)C[C@H]12` [IMIPENEM ANHYDROUS], inhibition of growth in experiment [1] (MIC) required 16 µg/mL (≈ 53.4 µM).
